The text below walks through data of patent US20120309811A1, “P-GLYCOPROTEIN-SPECIFIC NON-COMPETITIVE PEPTIDE AND PEPTIDOMIMETIC MODULATORS” (UNIVERSITE CLAUDE BERNARD - LYON 1, priority 2009, published 2012).

Square brackets hold non-standard residues; d marks the D form. Peptide text beside a SMILES is read from it. * marks the point of attachment. Hyp = O=C(O)[C@@H]1C[C@@H](O)CN1; Cbz = O=C(OCc1ccccc1)*; Boc = CC(C)(C)OC(=O)*; OBn = c1ccc(CO*)cc1; Bn = c1ccc(C*)cc1; OtBu = CC(C)(C)O* Bounds are passed on as bounds.

For one data set, the target named is T1, P-gp (Homo sapiens, UniProt P08183).
T1 construct: expressed in transfected cells; host or cells: NIH3T3 (ATCC CRL-1658), stably transfected with retroviral vector pHaMDR1/A
Briefly: Flow cytometry, inhibition of mitoxantrone efflux in NIH3T3 cells expressing P-gp. It counts as cell-based. As to conditions: for % pump inhibition at 10 μM of compound, P-gp / inhibition at 1 h, 10 µM: 10 μM compound; for % pump inhibition at 10 μM of compound, P-gp / inhibition at 1 h, 10 µM / IC50: mitoxantrone efflux; for inhibition at 1 h, 10 µM: human, probe mitoxantrone, read-out: % pump inhibition at 10 μM of compound, P-gp; for IC50: mathematical adjustment of experimental points. The text has this: (§1) The HEK-293 human fibroblast line (ATCC cell collection CRL-1573) is transfected with either BCRP (Robey R. W. et al. 2003, Br. J. Cancer 89(10) 1971-1978, [32]) or ABCC1, cloned into the pcDNA3.1 expression vector (Invitrogen), or with the empty pcDNA3.1 vector. The NIH3T3 cell line (ATCC CRL-1658) was stably transfected with pHaMDR1/A (Cardarelli et al. 1995 Cancer Res 55 1086-1091, [33]), which is a retroviral vector that expresses the wild-type MDR1 protein. The BHK-21 cell line (ATCC CCL-10) was transfected with MRP1 cloned into the pcDNA3.1 expression vector, or the empty pcDNA3.1 vector. The cells are maintained in culture in DMEM glutamax II (Invitrogen) supplemented with 10% of fetal bovine serum and 1% of penicillin/streptomycin. The data are processed with Sigmaplot V11 (http://www.systat.com/), and the equation for mathematical adjustment of the experimental data for calculating the IC50 values: f=a×(1−exp(−b×x)) (a=slope, b=intercept on the y-axis).
(§2) The cells expressing P-gp, BCRP and MRP, and their corresponding controls, are placed in the presence of 10 and 2 μM of mitoxantrone for the first two transporters and of 1 μM of daunorubicin for the 3rd. Substrate accumulation is carried out for 30 minutes at 37° C. in the presence or absence of varied concentrations of the molecules tested, at a final DMSO (dimethyl sulfoxide) concentration of 0.5%. After washing with PBS (phosphate buffered saline), the cells are incubated in medium containing the same concentrations of molecules tested as previously, for 1 h at 37° C. The intracellular fluorescence of mitoxantrone and daunorubicin anticancer agent is measured with the FACscan flow cytometer (Becton Dickinson, Mountain, View, Calif.). The drugs are excited at 488 nm. The emission of mitoxantrone is measured at 650 nm, whereas the emission of daunorubicin is measured at 530 nm. The effectiveness of the molecules tested is expressed by equation 1: % effectiveness=100×(FA−FBG)/(FC−FBG), where FA corresponds to the intracellular level of substrate measured in the cells overexpressing ABCG2 (corresponding to the lowest level of fluorescence in the absence of inhibitor), FC corresponds to the fluorescence in the control cells transfected with the empty vector (and therefore to the maximum accumulation of substrate in the cells) and FBG corresponds to the fluorescence measured in the absence of substrate and in the presence of inhibitor.
(§3) The inhibitory effect of the compounds is quantified by measuring, by flow cytometry, the efflux of an anticancer drug transported by the pump under consideration, i.e. mitoxantrone for P-gp and BCRP and daunorubicin for MRP1. It is compared with that of the reference product, reversin 121. The products are tested at 10 μM, then at 2 μM for those which block at least 80% of the efflux of mitoxantrone, and for some, a more complete concentration range is tested so as to establish the concentration value producing 50% inhibition, IC50, as indicated in FIG. 3.

Another data set addresses T2, BCRP (Homo sapiens, UniProt Q9UNQ0).
T2 construct: expressed in transfected cells; host or cells: HEK-293 (ATCC CRL-1573), pcDNA3.1 expression vector (Invitrogen)
T2 sequence (Q9UNQ0 1-655): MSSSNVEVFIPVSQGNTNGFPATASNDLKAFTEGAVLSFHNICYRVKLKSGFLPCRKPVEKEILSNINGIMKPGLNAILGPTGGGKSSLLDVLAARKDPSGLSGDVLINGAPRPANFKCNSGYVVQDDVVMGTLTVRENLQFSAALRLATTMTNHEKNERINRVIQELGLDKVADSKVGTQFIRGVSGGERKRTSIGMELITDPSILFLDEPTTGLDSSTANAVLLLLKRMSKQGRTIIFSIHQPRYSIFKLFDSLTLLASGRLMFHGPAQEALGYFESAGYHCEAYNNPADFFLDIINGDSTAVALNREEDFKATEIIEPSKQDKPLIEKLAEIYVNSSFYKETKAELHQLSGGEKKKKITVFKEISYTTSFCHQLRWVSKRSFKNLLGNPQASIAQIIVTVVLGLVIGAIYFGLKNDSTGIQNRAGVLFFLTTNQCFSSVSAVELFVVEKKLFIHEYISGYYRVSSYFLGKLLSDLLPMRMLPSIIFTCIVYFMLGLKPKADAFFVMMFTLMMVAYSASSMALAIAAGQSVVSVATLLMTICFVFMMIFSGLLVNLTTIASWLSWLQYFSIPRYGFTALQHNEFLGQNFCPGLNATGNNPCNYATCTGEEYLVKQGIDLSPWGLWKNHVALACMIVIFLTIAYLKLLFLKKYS
Briefly: Flow cytometry, inhibition of mitoxantrone efflux in HEK-293 cells transfected with BCRP. It counts as cell-based. As to conditions: 10 μM compound.
Excerpt: as §1, §2, §3

In a further data set the target is ABCB1 (Homo sapiens, UniProt P08183). Set-up: key: the inhibitor is active (+); it is inactive (−); the effect is unknown (?). The following applies: cited from earlier work.
Another data set addresses ABCC1 (Homo sapiens, UniProt P33527). The following applies: cited from earlier work.
The target of the next data set is T3, ABCG2 (Homo sapiens, UniProt Q9UNQ0).
T3 sequence (Q9UNQ0 1-655): T2 sequence (Q9UNQ0 1-655)
Details: key: the inhibitor is active (+); it is inactive (−); the effect is unknown (?). The following applies: cited from earlier work.

The conditions of data set [1]: phase III; cited from earlier work.
In another data set the target is T4, MRP1 (Homo sapiens, UniProt P33527).
T4 construct: expressed in transfected cells; host or cells: BHK-21 (ATCC CCL-10) with MRP1 in pcDNA3.1; HEK-293 transfected with ABCC1 in pcDNA3.1 is also described
Briefly: Flow cytometry, inhibition of daunorubicin efflux in cells transfected with MRP1. As to conditions: 10 μM compound. It counts as cell-based.
Excerpt: as §1, §2
The inhibitory effect of the compounds is quantified by measuring, by flow cytometry, the efflux of an anticancer drug transported by the pump under consideration, i.e. mitoxantrone for P-gp and BCRP and daunorubicin for MRP1. It is compared with that of the reference product, reversin 121. […]

Data set [2] deals with NIH3T3 cells expressing or not expressing P-gp. Briefly: Cytotoxicity test (MTT), cell survival after 72 h. It counts as cell-based. The method, then:
The cells are seeded in a proportion of 10 000 per well in 96-well plates and incubated for 24 hours at 37° C. under 5% CO2. Varied concentrations of compounds Nos 2, 3, 4, 5 and 6, up to 20 times the IC50, are then added. The cytotoxicity is evaluated colorinnetrically with 3-(4,5-dimethylthiazol-2-yl)-2,5-diphenyltetrazolium bromide (MTT).
Increasing concentrations of compound No. 4 or No. 6 are applied to NIH3T3 cells expressing or not expressing P-gp. The cell survival is measured after 72 h and is expressed as a percentage. At 10 times the half-maximum-effect concentration, these two compounds are not toxic. Above this, the toxicity of compound No. 4 remains negligible, while that of compound No. 6 remains limited.

ABCC1, sequence (P33527 whole entry): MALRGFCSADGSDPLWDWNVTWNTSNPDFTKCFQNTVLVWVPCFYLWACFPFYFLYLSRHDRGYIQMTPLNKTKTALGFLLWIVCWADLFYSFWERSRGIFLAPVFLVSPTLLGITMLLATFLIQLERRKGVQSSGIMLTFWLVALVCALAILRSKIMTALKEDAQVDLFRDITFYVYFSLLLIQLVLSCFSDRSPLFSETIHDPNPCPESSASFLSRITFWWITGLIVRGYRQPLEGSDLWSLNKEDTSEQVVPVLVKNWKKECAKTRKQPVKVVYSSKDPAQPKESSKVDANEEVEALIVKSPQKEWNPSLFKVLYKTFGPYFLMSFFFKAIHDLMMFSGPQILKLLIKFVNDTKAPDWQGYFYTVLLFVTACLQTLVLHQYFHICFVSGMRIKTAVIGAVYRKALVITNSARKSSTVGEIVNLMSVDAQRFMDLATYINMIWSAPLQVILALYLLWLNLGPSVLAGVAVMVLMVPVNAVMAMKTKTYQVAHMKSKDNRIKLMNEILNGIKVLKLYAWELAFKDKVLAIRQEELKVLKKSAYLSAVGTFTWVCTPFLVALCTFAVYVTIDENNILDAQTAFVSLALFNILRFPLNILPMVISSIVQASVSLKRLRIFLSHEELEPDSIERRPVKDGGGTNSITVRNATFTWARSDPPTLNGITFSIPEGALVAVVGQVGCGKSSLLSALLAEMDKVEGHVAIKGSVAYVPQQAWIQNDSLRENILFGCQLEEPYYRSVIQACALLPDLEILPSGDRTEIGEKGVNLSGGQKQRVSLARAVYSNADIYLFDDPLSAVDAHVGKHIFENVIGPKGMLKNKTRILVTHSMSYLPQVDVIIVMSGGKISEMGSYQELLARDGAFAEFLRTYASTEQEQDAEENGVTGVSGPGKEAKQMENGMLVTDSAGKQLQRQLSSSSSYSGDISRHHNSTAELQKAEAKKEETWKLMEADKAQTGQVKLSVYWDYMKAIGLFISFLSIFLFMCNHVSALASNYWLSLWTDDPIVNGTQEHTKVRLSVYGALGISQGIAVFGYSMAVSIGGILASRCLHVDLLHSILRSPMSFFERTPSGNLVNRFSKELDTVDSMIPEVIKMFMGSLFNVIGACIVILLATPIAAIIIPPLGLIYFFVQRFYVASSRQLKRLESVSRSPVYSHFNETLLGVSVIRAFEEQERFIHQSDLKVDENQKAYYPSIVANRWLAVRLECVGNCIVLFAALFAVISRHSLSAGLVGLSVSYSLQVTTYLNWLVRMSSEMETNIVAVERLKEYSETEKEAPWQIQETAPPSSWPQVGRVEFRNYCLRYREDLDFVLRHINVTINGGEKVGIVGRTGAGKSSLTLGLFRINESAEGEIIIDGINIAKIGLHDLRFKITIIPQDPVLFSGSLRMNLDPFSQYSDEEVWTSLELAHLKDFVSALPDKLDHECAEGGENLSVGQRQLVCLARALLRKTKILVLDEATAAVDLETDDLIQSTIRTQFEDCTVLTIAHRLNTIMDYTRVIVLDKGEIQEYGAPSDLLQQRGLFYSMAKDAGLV
T4 sequence (P33527 whole entry): as above
ABCB1, sequence (P08183 whole entry): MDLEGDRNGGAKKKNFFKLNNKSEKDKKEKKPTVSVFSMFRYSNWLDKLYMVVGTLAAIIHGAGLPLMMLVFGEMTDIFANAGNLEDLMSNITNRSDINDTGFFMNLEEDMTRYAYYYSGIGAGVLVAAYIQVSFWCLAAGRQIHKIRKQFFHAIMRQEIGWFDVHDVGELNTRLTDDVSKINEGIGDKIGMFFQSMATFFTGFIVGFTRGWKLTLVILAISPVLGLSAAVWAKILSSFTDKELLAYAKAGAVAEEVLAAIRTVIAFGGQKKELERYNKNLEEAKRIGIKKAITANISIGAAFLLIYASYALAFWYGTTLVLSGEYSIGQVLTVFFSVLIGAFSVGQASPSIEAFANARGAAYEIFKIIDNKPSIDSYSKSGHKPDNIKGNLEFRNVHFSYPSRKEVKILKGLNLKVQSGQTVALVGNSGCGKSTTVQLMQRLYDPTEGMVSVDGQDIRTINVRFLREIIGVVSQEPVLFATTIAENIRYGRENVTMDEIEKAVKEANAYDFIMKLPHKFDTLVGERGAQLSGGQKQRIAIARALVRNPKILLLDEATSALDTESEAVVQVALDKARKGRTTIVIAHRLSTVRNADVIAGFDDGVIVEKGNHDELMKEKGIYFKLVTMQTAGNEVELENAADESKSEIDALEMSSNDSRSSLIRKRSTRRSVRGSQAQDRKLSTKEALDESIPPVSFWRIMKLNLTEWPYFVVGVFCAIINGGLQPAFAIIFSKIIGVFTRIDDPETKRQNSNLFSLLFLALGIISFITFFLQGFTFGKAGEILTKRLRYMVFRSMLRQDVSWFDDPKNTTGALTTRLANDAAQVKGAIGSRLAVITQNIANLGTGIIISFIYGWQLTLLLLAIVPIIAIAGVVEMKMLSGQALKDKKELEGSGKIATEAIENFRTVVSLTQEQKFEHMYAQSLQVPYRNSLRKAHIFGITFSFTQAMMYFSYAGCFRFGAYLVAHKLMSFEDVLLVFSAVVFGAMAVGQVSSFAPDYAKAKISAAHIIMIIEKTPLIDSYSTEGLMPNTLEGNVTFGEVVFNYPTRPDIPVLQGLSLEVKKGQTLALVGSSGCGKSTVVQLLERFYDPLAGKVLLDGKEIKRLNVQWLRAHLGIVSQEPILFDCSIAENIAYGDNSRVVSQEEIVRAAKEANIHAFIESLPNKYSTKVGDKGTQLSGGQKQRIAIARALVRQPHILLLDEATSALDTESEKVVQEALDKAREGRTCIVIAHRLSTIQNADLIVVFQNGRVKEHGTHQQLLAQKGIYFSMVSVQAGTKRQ
T1 sequence (P08183 whole entry): as above

For `CC(C)(C)OC(=O)[C@H](CCCCNC(=O)OCc1ccccc1)NC(=O)[C@@H]1C[C@@H](OC(=O)Cc2ccccc2)CN1C(=O)OC(C)(C)C` (relative stereo) [No. 2, N^α-Boc-trans-L-4-Hyp(COBn)-L-Lys(Z)-OtBu], at P-gp, the “% pump inhibition at 10 μM of compound, P-gp” value (shortened to “% pump inhibition … P-gp”) is recorded as 68.0 ± 10.0%. Besides, at BCRP, the “% pump inhibition at 10 μM of compound, BCRP” value (from here on “% pump inhibition … BCRP”) amounted to 10.0 ± 7.5%.

Turning to `COc1cc2c(cc1OC)CN(CCc1ccc(NC(=O)c3cccc4c(=O)c5cccc(OC)c5[nH]c34)cc1)CC2` [GF120918 (elacridar)], on ABCB1, the “activity of MDR inhibitor on ABCB1” value is listed as “+”. In addition, the “activity of MDR inhibitor on ABCC1” value on ABCC1 is listed as “−”. Moreover, at ABCG2, the “activity of MDR inhibitor on ABCG2” value is listed as “+”.

In the case of `O[C@@H](COc1cccc2ncccc12)CN1CCN([C@@H]2c3ccccc3[C@@H]3[C@H](c4ccccc42)C3(F)F)CC1` [Ly335979 (zosuquidar)], the “activity of MDR inhibitor on ABCC1” value at ABCC1 is recorded as “−”. In addition, on ABCG2, the “activity of MDR inhibitor on ABCG2” value was “−”. In addition, the clinical outcome in data set [1] is listed as “stopped in phase III because of their adverse effects”.

`CC(C)(C)OC(=O)C(CCCCNC(=O)OCc1ccccc1)NC(=O)C1CC(OC(=O)C2CCCCC2)CN1C(=O)OC(C)(C)C` [No. 3, N^α-Boc-trans-L-4-Hyp(COcHex)-L-Lys(Z)-OtBu]: on P-gp, the “IC50 for P-gp compared with that of reversin 121” value was “better than that of reversin”; the inhibition at 1 h, 10 µM was 106 ± 13.4%; half-maximal inhibition (IC50) was put at 1680 ± 280 nM. Also, at BCRP (human, HEK-293 cells transfected with BCRP, probe mitoxantrone, read-out: % pump inhibition at 10 μM of compound, BCRP), the inhibition at 1 h, 10 µM turned out to be 11.2%. In addition, at MRP1 (10 µM), the “% pump inhibition at 10 μM of compound, MRP1” value is “non measurable”.

Take `CC(C)(C)OC(=O)[C@H](CCCCNC(=O)OCc1ccccc1)NC(=O)[C@@H]1C[C@@H](OCc2ccccc2)CN1C(=O)OC(C)(C)C` [No. 4, N^α-Boc-trans-L-4-Hyp(Bn)-L-Lys(Z)-OtBu] (Boc-[Hyp](Bn)-Lys(Cbz)-OtBu): at P-gp, the “IC50 for P-gp compared with that of reversin 121” value is listed as “twice as good”; the “% pump inhibition … P-gp” value is on record as 99.7 ± 11.0%; inhibition was half-maximal at 730 ± 200 nM (IC50). The “% pump inhibition … BCRP” value at BCRP (10 µM) was 16.6 ± 3.4%. Moreover, the “% pump inhibition at 10 μM of compound, MRP1” value on MRP1 was “low or zero”. Moreover, the inhibition at 1 h, 10 µM at MRP1 (human, probe daunorubicin, read-out: % pump inhibition at 10 μM of compound, MRP1) is less than 10%. For the same molecule, the cytotoxicity result in data set [2] (above 10 times the half-maximum-effect concentration) is reported as “negligible”. The cytotoxicity result in data set [2] (at 10 times the half-maximum-effect concentration) is “not toxic”.

As for `CC(C)(C)OC(=O)[C@H](CCCCNC(=O)OCc1ccccc1)NC(=O)[C@@H]1C[C@@H](OCC2CCCCC2)CN1C(=O)OC(C)(C)C` [No. 5, N^α-Boc-trans-L-4-Hyp(CH2cHex)-L-Lys(Z)-OtBu], at P-gp, the inhibition at 1 h, 10 µM is 82.2 ± 10.8% and half-maximal inhibition (IC50) was put at 1130 ± 340 nM. Also, the “% pump inhibition … BCRP” value at BCRP amounted to 18.8 ± 10.0%.

For `CCOC/C=C/c1ccc(-c2nc(-c3ccc(NC(C)C)cc3)c(-c3ccc(NC(C)C)cc3)[nH]2)cc1` [ONT-093 (ontogeny)], the “activity of MDR inhibitor on ABCB1” value at ABCB1 is “+”. In addition, on ABCC1, the “activity of MDR inhibitor on ABCC1” value is “−”.

Take `C/C=C/C[C@@H](C)C(=O)[C@H]1C(=O)N[C@@H](C(C)C)C(=O)N(C)CC(=O)N(C)[C@@H](CC(C)C)C(=O)N[C@@H](C(C)C)C(=O)N(C)[C@@H](CC(C)C)C(=O)N[C@@H](C)C(=O)N[C@H](C)C(=O)N(C)[C@@H](CC(C)C)C(=O)N(C)[C@@H](CC(C)C)C(=O)N(C)[C@@H](C(C)C)C(=O)N1C` [PSC833 (valspodar)]: the “activity of MDR inhibitor on ABCB1” value at ABCB1 is listed as “+”. In addition, the “activity of MDR inhibitor on ABCG2” value at ABCG2 is “−”.

For `COC(=O)c1cnc2n1CCc1ccccc1C2=C1CCN(CCc2ccc(OCc3ccc4ccccc4n3)cc2)CC1` [R101933 (laniquidar)], at ABCB1, the “activity of MDR inhibitor on ABCB1” value is reported as “+”.

Consider `CC(C)(C)OC(=O)N[C@@H](CC(=O)OCc1ccccc1)C(=O)N[C@@H](CCCCNC(=O)OCc1ccccc1)C(=O)OC(C)(C)C` [Reversin 121, reference compound] (Boc-Asp(OBn)-Lys(Cbz)-OtBu), for which, at P-gp, the “% pump inhibition … P-gp” value came out at 75.8 ± 1.6% and 1410 ± 340 nM corresponded to half-maximal inhibition (IC50). Moreover, the “% pump inhibition … BCRP” value at BCRP is reported as 37.2 ± 3.7%.

For the molecule `COc1cc(C(=O)C(=O)N2CCCC[C@H]2C(=O)OC(CCCc2cccnc2)CCCc2cccnc2)cc(OC)c1OC` [VX-710 (biricodar)], the “activity of MDR inhibitor on ABCB1” value at ABCB1 is “+”. Moreover, the “activity of MDR inhibitor on ABCC1” value on ABCC1 is “+”. Besides, on ABCG2, the “activity of MDR inhibitor on ABCG2” value was “+”.

For the molecule `COc1cc2c(cc1OC)CN(CCc1ccc(NC(=O)c3cc(OC)c(OC)cc3NC(=O)c3cnc4ccccc4c3)cc1)CC2` [XR9576 (tariquidar)], on ABCB1, the “activity of MDR inhibitor on ABCB1” value was “+”. Moreover, on ABCG2, the “activity of MDR inhibitor on ABCG2” value was “+”.
